Data from patent US8461328B2, “Tricyclic heterocyclic compounds, compositions and methods of use thereof” (Genentech, Inc., priority 2010, dated 2013).
Where two headings read alike, the source gives them in different places.

Columns and labels:
Format in all cases: biochemical
JAK2 = biological target: T1, JAK2 (Homo sapiens, UniProt O60674); experiment: JAK2 inhibition (Table 4); conditions: read-out: JAK2 Ki
T1 construct: made in house; host or cells: SF9 insect cells (baculovirus)

JAK3 = biological target: T2, JAK3 (Homo sapiens, UniProt P52333); experiment: JAK3 inhibition (Table 4)
T2 construct: made in house; host or cells: SF9 insect cells (baculovirus)

JAK1 = biological target: T3, JAK1 (Homo sapiens, UniProt P23458); experiment: JAK1 inhibition (Table 4)
T3 construct: made in house; host or cells: SF9 insect cells (baculovirus)

TYK2 = biological target: T4, TYK2 (Homo sapiens, UniProt P29597); experiment: TYK2 inhibition (Table 4)
T4 construct: made in house; host or cells: SF9 insect cells (baculovirus)
T4 sequence (P29597 873-1187): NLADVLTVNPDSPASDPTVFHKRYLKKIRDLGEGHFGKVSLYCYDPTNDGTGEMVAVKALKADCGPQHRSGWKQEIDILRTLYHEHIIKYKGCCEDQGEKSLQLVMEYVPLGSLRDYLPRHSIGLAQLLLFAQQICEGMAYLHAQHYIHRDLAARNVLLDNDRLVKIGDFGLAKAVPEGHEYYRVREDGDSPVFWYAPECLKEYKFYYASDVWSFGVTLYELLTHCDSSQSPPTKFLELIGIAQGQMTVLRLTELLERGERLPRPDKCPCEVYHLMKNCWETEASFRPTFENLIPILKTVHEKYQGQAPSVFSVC

T1 sequence (O60674 812-1132): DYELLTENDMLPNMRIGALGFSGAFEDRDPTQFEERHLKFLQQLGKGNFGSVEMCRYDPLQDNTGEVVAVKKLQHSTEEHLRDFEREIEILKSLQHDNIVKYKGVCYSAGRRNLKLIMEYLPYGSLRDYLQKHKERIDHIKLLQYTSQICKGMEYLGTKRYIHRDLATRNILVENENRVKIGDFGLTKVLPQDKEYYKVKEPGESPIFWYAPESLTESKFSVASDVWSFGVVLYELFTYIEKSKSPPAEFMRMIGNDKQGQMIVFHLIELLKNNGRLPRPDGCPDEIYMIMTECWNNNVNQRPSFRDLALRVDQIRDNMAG
T3 sequence (P23458 852-1154): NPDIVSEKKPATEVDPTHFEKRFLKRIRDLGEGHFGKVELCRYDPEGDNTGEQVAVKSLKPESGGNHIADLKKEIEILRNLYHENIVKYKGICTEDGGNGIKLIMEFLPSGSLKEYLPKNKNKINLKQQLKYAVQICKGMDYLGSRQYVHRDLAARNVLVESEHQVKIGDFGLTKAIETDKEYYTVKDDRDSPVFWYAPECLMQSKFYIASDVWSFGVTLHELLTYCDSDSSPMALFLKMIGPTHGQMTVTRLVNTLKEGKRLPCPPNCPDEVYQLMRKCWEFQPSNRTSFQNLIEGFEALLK
T2 sequence (P52333 783-1124): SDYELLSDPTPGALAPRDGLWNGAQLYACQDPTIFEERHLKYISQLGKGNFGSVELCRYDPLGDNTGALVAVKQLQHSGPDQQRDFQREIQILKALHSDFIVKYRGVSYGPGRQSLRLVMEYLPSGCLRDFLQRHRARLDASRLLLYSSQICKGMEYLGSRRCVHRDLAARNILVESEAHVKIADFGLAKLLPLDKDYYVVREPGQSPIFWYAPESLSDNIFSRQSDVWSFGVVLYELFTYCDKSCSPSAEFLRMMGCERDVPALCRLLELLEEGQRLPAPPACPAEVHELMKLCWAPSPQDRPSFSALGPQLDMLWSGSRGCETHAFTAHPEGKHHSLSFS

SMILES | Ki (JAK2) | Ki (JAK3; read-out: JAK3 Ki) | Ki (JAK1; read-out: JAK1 Ki) | Ki (TYK2) | Ki (JAK3; JAK3 Ki) | Ki (JAK1; JAK1 Ki)
C[C@@H](O)c1nc2cnc3[nH]ccc3c2n1[C@H]1CC[C@H](N(C)CC(F)(F)F)CC1 [Example 617, Trans (R)-1-(1-{4-[methyl-(2,2,2-trifluoro-ethyl)-amino]-cyclohexyl}-1,6-dihydro-1,2,3,5,6-tetraaza-as-indacen-2-yl)-ethanol] | 38.7 nM | 147 nM | 11.9 nM | 22.3 nM |  | 
Cc1nc2cnc3[nH]ccc3c2n1[C@@H]1CC[C@@H](NC(=O)OC(C)(C)C)C1 [Example 623, [(1R,3R)-3-(2-Methyl-6H-1,2,3,5,6-tetraaza-as-indacen-1-yl)-cyclopentyl]-carbamic acid tert-butyl ester] | 8.69 nM | 42.7 nM | 0.98 nM | 118 nM |  | 
Cc1nc2cnc3[nH]ccc3c2n1[C@@H]1CC[C@@H](NC(=O)CC(F)(F)F)C1 [Example 624, 3,3,3-Trifluoro-N-[(1R,3R)-3-(2-methyl-6H-1,2,3,5,6-tetraaza-as-indacen-1-yl)-cyclopentyl]-propionamide] | 10.2 nM | 13.9 nM | 2.23 nM | 63 nM |  | 
Cc1nc2cnc3[nH]ccc3c2n1[C@@H]1CC[C@@H](NC2COC2)C1 [Example 625, [(1R,3R)-3-(2-Methyl-6H-1,2,3,5,6-tetraaza-as-indacen-1-yl)-cyclopentyl]-oxetan-3-yl-amine] | 99.7 nM | 169 nM | 33.9 nM | 218 nM |  | 
C[C@@H](O)c1nc2cnc3[nH]ccc3c2n1[C@H]1CC[C@H](S(C)(=O)=O)CC1 [Example 650, Trans (R)-1-[1-(4-methanesulfonyl-cyclohexyl)-1,6-dihydro-1,2,3,5,6-tetraaza-as-indacen-2-yl]-ethanol] | 113 nM | 756 nM | 10.5 nM | 52 nM |  | 
C[C@@H](O)c1nc2cnc3[nH]ccc3c2n1[C@H]1CC[C@@H](n2cncn2)CC1 [Example 653, Cis (R)-1-[1-(4-[1,2,4]triazol-1-yl-cyclohexyl)-1,6-dihydro-1,2,3,5,6-tetraaza-as-indacen-2-yl]-ethanol] | 24.7 nM | 1.31 nM | 0.88 nM | 5.28 nM |  | 
COc1nc2cnc3[nH]ccc3c2n1C1CCN(CCC#N)CC1 [Example 655, 3-[4-(2-Methoxy-6H-1,2,3,5,6-tetraaza-as-indacen-1-yl)-piperidin-1-yl]-propionitrile] | 1.08 nM | 15.9 nM | 0.46 nM | 4.67 nM |  | 
CN(C)c1nc2cnc3[nH]ccc3c2n1C1CCN(CCC#N)CC1 [Example 656, 3-[4-(2-Dimethylamino-6H-1,2,3,5,6-tetraaza-as-indacen-1-yl)-piperidin-1-yl]-propionitrile] | 77 nM | 37.7 nM | 14.6 nM | 420 nM |  | 
CNc1nc2cnc3[nH]ccc3c2n1C1CCN(CC(F)(F)F)CC1 [Example 658, Methyl-{1-[1-(2,2,2-trifluoro-ethyl)-piperidin-4-yl]-1,6-dihydro-1,2,3,5,6-tetraaza-as-indacen-2-yl}-amine] | 13.6 nM | 34.2 nM | 3.51 nM | 67.4 nM |  | 
C[C@@H](O)c1nc2cnc3[nH]ccc3c2n1[C@@H]1CCCO1 [Example 659, (R)-1-[(S)-1-(Tetrahydro-furan-2-yl)-1,6-dihydro-1,2,3,5,6-tetraaza-as-indacen-2-yl]-ethanol] | 395 nM | 172 nM | 30.8 nM | 308 nM |  | 
C[C@@H](O)c1nc2cnc3[nH]ccc3c2n1[C@H]1CCCO1 [Example 660, (R)-1-[(R)-1-(Tetrahydro-furan-2-yl)-1,6-dihydro-1,2,3,5,6-tetraaza-as-indacen-2-yl]-ethanol] | 1220 nM | 1050 nM | 327 nM | 645 nM |  | 
C[C@@H](O)c1nc2cnc3[nH]ccc3c2n1[C@@H]1CCCN(C(=O)CC#N)C1 [Example 661, 3-{(R)-3-[2-((R)-1-Hydroxy-ethyl)-6H-1,2,3,5,6-tetraaza-as-indacen-1-yl]-piperidin-1-yl}-3-oxo-propionitrile] | 66.3 nM | 55.4 nM | 3.98 nM | 46.2 nM |  | 
C[C@H](O)c1nc2cnc3[nH]ccc3c2n1[C@@H]1CCCN(C(=O)CC#N)C1 [Example 662, 3-{(R)-3-[2-((S)-1-Hydroxy-ethyl)-6H-1,2,3,5,6-tetraaza-as-indacen-1-yl]-piperidin-1-yl}-3-oxo-propionitrile] | 307 nM | 855 nM | 26.2 nM | 877 nM |  | 
CC(O)c1nc2cnc3[nH]ccc3c2n1C1CCCN(CCF)C1 [Example 664, (R)-1-{1-[(R)-1-(2-Fluoro-ethyl)-piperidin-3-yl]-1,6-dihydro-1,2,3,5,6-tetraaza-as-indacen-2-yl}-ethanol] | 99 nM | 112 nM | 63.8 nM | 58.5 nM |  | 

Second part, the molecule after the results:

Ki (JAK2) | Ki (JAK3; read-out: JAK3 Ki) | Ki (JAK1; read-out: JAK1 Ki) | Ki (TYK2) | Ki (JAK3; JAK3 Ki) | Ki (JAK1; JAK1 Ki) | SMILES
2.57 nM | 19.3 nM | 0.85 nM | 6.79 nM |  |  | OC[C@H]1CC[C@H](n2cnc3cnc4[nH]ccc4c32)CC1 [Example 631, trans [4-(6H-1,2,3,5,6-Tetraaza-as-indacen-1-yl)-cyclohexyl]-methanol]
3.31 nM | 12.1 nM | 1.19 nM | 6.08 nM |  |  | Cc1nc2cnc3[nH]ccc3c2n1[C@H]1CC[C@H](CO)CC1 [Example 633, Trans[4-(2-methyl-6H-1,2,3,5,6-tetraaza-as-indacen-1-yl)-cyclohexyl]-methanol]
21.9 nM | 165 nM | 3.8 nM | 4.4 nM |  |  | CO[C@H]1CC[C@H](n2c(CO)nc3cnc4[nH]ccc4c32)CC1 [Example 634, Trans[1-(4-Methoxy-cyclohexyl)-1,6-dihydro-1,2,3,5,6-tetraaza-as-indacen-2-yl]-methanol]
15.6 nM | 28 nM | 3.82 nM | 6.5 nM |  |  | COC[C@H]1CC[C@H](n2c(CO)nc3cnc4[nH]ccc4c32)CC1 [Example 636, Trans[1-(4-methoxymethyl-cyclohexyl)-1,6-dihydro-1,2,3,5,6-tetraaza-as-indacen-2-yl]-methanol]
35.6 nM | 37 nM | 1.89 nM | 7.42 nM |  |  | COC[C@H]1CC[C@H](n2c([C@@H](C)O)nc3cnc4[nH]ccc4c32)CC1 [Example 637, Trans (R)-1-[1-(4-methoxymethyl-cyclohexyl)-1,6-dihydro-1,2,3,5,6-tetraaza-as-indacen-2-yl]-ethanol]
14.4 nM | 58.1 nM | 0.78 nM | 4.04 nM |  |  | C[C@@H](O)c1nc2cnc3[nH]ccc3c2n1[C@H]1CC[C@H](OCC#N)CC1 [Example 639, Trans {4-[2-((R)-1-hydroxy-ethyl)-6H-1,2,3,5,6-tetraaza-as-indacen-1-yl]-cyclohexyloxy}-acetonitrile]
9.66 nM | 82.7 nM | 3.93 nM | 25.1 nM |  |  | N#C[C@H]1CC[C@H](n2cnc3cnc4[nH]ccc4c32)CC1 [Example 640, trans 4-(6H-1,2,3,5,6-Tetraaza-as-indacen-1-yl)-cyclohexanecarbonitrile]
66.5 nM | 254 nM | 1.87 nM | 12.4 nM |  |  | C[C@@H](O)c1nc2cnc3[nH]ccc3c2n1[C@H]1CC[C@H](C#N)CC1 [Example 641, trans 4-[2-((R)-1-Hydroxy-ethyl)-6H-1,2,3,5,6-tetraaza-as-indacen-1-yl]-cyclohexanecarbonitrile]
20.9 nM | 185 nM | 2.06 nM | 7.22 nM |  |  | N#C[C@H]1CC[C@H](n2c(CO)nc3cnc4[nH]ccc4c32)CC1 [Example 642, Trans 4-(2-hydroxymethyl-6H-1,2,3,5,6-tetraaza-as-indacen-1-yl)cyclohexane carbonitrile]
0.81 nM | 5.31 nM | 0.12 nM | 0.36 nM |  |  | C[C@@H](O)c1nc2cnc3[nH]ccc3c2n1[C@H]1CC[C@H](CC#N)CC1 [Example 644, Trans {4-[2-((R)-1-Hydroxy-ethyl)-6H-1,2,3,5,6-tetraaza-as-indacen-1-yl]-cyclohexyl}-acetonitrile]
0.39 nM |  |  | 0.25 nM | 3.56 nM | 0.13 nM | N#CC[C@H]1CC[C@H](n2c(CO)nc3cnc4[nH]ccc4c32)CC1 [Example 645, Trans[4-(2-hydroxymethyl-6H-1,2,3,5,6-tetraaza-as-indacen-1-yl)-cyclohexyl]-acetonitrile]
2.05 nM | 9.11 nM | 0.53 nM | 1.49 nM |  |  | N#CCC[C@H]1CC[C@H](n2c(CO)nc3cnc4[nH]ccc4c32)CC1 [Example 646, 3-[4-(2-hydroxymethyl-6H-1,2,3,5,6-tetraaza-as-indacen-1-yl)-cyclohexyl]-propionitrile]
42.5 nM | 430 nM | 9.87 nM | 34.8 nM |  |  | CS(=O)(=O)[C@H]1CC[C@H](n2c(CO)nc3cnc4[nH]ccc4c32)CC1 [Example 651, Trans[1-(4-Methanesulfonyl-cyclohexyl)-1,6-dihydro-1,2,3,5,6-tetraaza-as-indacen-2-yl]-methanol]
4.38 nM | 39 nM | 0.81 nM | 3.7 nM |  |  | CS(=O)(=O)CC[C@H]1CC[C@H](n2c(CO)nc3cnc4[nH]ccc4c32)CC1 [Example 652, Trans {1-[4-(2-methanesulfonyl-ethyl)-cyclohexyl]-1,6-dihydro-1,2,3,5,6-tetraaza-as-indacen-2-yl}-methanol]
